From article PMC5620620, “Comparison of In Vitro Assays in Selecting Radiotracers for In Vivo P-Glycoprotein PET Imaging” (Pharmaceuticals, 2017)

What was measured:
P-gp (human MDR1) = system: T1, P-gp (human MDR1); test: Bidirectional transport of tritiated compounds in MDCKII-MDR1 cells; assay type: in vitro ADME; conditions: dog, MDCK-MDR1
T1 construct: host or cells: MDCKII (canine kidney) cells transfected with human MDR1 cDNA

P-gp [1] = biological target: T2, P-gp (Homo sapiens, UniProt P08183); test: as above; assay type: in vitro ADME; conditions: for Substrate In Vitro: ER 0.01 µM; for P-gp substrate behaviour in vitro: concentrations 0.01-50 µM and inhibitors; for ER 0.01 µM: tritiated compound 0.01 µM, Papp B→A/Papp A→B; for Recovery of radioactivity: all experiments, A → B and B → A directions
T2 construct: host or cells: MDCKII (canine kidney) cells transfected with human MDR1 cDNA
Experimental: (§1) Madin-Darby canine kidney (MDCK) II cells expressing cDNAs encoding human MDR1 (MDCKII-MDR1 cells) were obtained by TNO from the Netherlands Cancer Institute. […] Cells were counted using an automatic cell counter (Millipore, Bedford, MA, USA). […] The medium was refreshed after 48 h. It has been shown, that under these conditions the human transporter protein MDR1 localizes on the apical plasma membrane of the cells.
(§2) After three days of cell culture on Transwell, the MDCKII-MDR1 monolayers are expected to have developed a transepithelial electrical resistance (TEER) of approximately 70 Ωcm^2 higher than background (empty filter without cells). At the start of each study, TEER was measured to assess the integrity of the monolayers of MDCKII-MDR1 cells in culture medium using the Millicell-ERS epithelial voltohmmeter (Millipore). Monolayers with a TEER value less than 55 Ωcm^2 above background (empty filter) were excluded from the transport assay. […] Cell monolayers were also inspected with a microscope before starting the experiments.
(§3) Transcellular transport studies were performed as described previously with minor modifications.
(§4) After the integrity assessment, culture medium was removed from the filter inserts (apical compartment (A)). The inserts were washed once with warm (37 °C) HBSS, transferred to new 12-well plates which were preincubated with HBSS/HEPES for 18 h at 37 °C, to reduce non-specific binding to the plastic, and washed with warm HBSS. The MDR1-mediated apical to basolateral (A → B) transport in MDCKII-MDR1 cell monolayers was determined by addition of 0.65 mL of a tritiated compound in concentrations of 0.01, 1 and 50 µM to the apical compartment in triplicate. A volume of 1.8 mL of HBSS/HEPES was added to the basolateral compartment. To determine basolateral to apical (B → A) transport, 1.95 mL of a tritiated compound at concentrations of 0.01, 1 and 50 µM was added to the basolateral compartment and 0.5 ml of HBSS/HEPES to the apical compartment. A 150 µL aliquot of the apical (A → B) or basolateral (B → A) compartment was taken at the start of the experiment to measure the initial concentration and to calculate the recovery of radioactivity. […] Aliquots of the apical and basolateral samples (150 and 1600 µL for A → B and 400 and 150 µL for B → A, respectively) and samples of the initial concentration were mixed with 10 mL of liquid scintillant Ultima GoldTM (PerkinElmer Inc.). Radioactivity was determined by LSC on a Tri Carb 3100TR liquid scintillation counter using QuantaSmart^TM software (PerkinElmer Inc.) in which all counts were converted to disintegrations per minute (DPM) using tSIE/AEC (transformed spectral index of external standards coupled to automatic efficiency correction). Background values were measured for each sample sequence using liquid scintillant without test samples. Recovery of radioactivity was calculated as percentage of measured total radioactivity after the experiment versus initial radioactivity.
(§5) Subsequently, the effects of MDR1-inhibitors ketoconazole and tariquidar on the bidirectional transport of the tested tritiated compounds were examined. Stock solutions of the inhibitors ketoconazole (10 mM) and tariquidar (10 mM) were prepared in DMSO. […] These concentrations were based on IC50 values that are known to block P-gp completely.
(§6) A is the surface area of the filter insert (cm^2) and C0 the measured initial concentration, calculated from total DPM on the donor side at t = 0 min (DPM/L).
(§7) To determine the ER for the test compounds, the following equation was used:ER = Papp B → A/Papp A → B(2)

P-gp (MDR1) = biological target: T3, P-gp (MDR1) (Homo sapiens, UniProt P08183); test: as above; assay type: in vitro ADME; conditions: MDCK-MDR1; for efflux ratio at 2 h, 1 µM / efflux ratio at 2 h, 50 µM: read-out: ER; for efflux ratio at 2 h, 0.01 µM: human, read-out: ER 0.01 µM
T3 construct: host or cells: MDCKII (canine kidney) cells transfected with human MDR1 cDNA
Experimental: as §1, §2, §3, §4, §5, §6, §7

[2] = after 5 min; cited from earlier work
P-gp [3] = test: In vivo P-gp substrate classification from knockout mice and/or tariquidar-treated rats; conditions: for Substrate In Vivo: brain-to-plasma or AUC ratio in at least one strain; for P-gp substrate classification in vivo: cutoff value of 2 for brain-to-plasma and AUC ratios
P-gp [4] = biological target: T2, P-gp; test: Calcein-AM inhibition assay in MDCKII-MDR1 cells; assay type: cell-based; conditions: non-radioactive compounds
Experimental: The calcein-AM experiment was performed in MDCKII-MDR1 cells according to methods described previously. Calcein cell accumulation in the absence and in the presence of test compounds (0,1, 1, 10, 30, 50 and 100 µM) was evaluated and the basal level of fluorescence was measured in untreated cells. EC50 values were determined by fitting the fluorescence increase (in %) versus log[dose].

[5] = parameters: method as in PMID 26043236; conditions: pH 7.4; cited from earlier work
P-gp and/or Bcrp = test: Brain uptake (microPET, biodistribution) in Mdr1a/b(−/−)Bcrp1(−/−) knockout versus wild-type mice; assay type: in vivo; conditions: Mdr1a/b(−/−)Bcrp1(−/−) vs wild-type mice; for Difference in whole brain time-activity curves (SUV) between knockout and wild-type: AUC from 0 to 30 min; for P-gp substrate behaviour in vivo: tracer concentrations
Excerpt: All animal studies were in compliance with the local ethical guidelines. Protocols (DEC 6456C) were approved by the Institutional Animal Care and Use Committee of the University of Groningen. Male FVB wild type mice (33 ± 2 g, 11–12 weeks) and Mdr1a/b^(−/−)Bcrp1^(−/−) constitutive knockout mice (31 ± 3 g, 11–12 weeks) developed from the FVB line were purchased from Taconic (Hudson, NY, USA). After arrival, animals were housed individually and acclimatized for at least 7 days in the Central Animal Facility of the University Medical Center Groningen before experiments. Mice had access to food and water ad libitum and were kept under a 12 h light-dark cycle. During experiments, mice were anesthetized with 2% isoflurane in medical air and kept at a constant temperature using electronically controlled heating pads.
(§8) Mice were injected with radiotracers (3.5 ± 1.6 MBq, 0.1 mL, [^18F]MC198 or [^18F]KE64) in the penile vein under isoflurane anesthesia. Injections were performed with the mice in the microPET camera (microPET Focus 220, Siemens Medical Solutions, Malvern, PA, USA), simultaneously starting a 30 min dynamic emission scan. After each emission scan, a transmission scan of 515 s with a ^57Co point source was performed to correct the emission data for attenuation and scatter. Mice were terminated by cervical dislocation. Several organs and tissues were excised, weighed and radioactivity was measured in a γ-counter (LKB Wallac, Turku, Finland). Radioactivity accumulation in the organs was expressed as SUV, using the following formula: [tissue activity concentration (MBq/g)]/[injected dose (MBq)/body weight (g)]. Metabolites in the terminal plasma and brain samples were determined using a radio-TLC method described elsewhere. TLC-plates were eluted with ethylacetate/methanol 9:1 v/v (Rf [^18F]MC198 = 0.45, Rf[^18F]KE64 = 0.62). PET data were reconstructed as described previously. Inveon Research Workplace software version 4.0 (Siemens, Erlangen, Germany) was used for data analysis. All frames were summed, and PET images were co-registered with an MRI template. A whole brain volume of interest (VOI) based on the MRI template was generated. Radioactivity concentrations were converted to SUV values and plotted as time-activity curves (TAC).

Log D7.4 = assay type: physicochemical; conditions: pH 7.4, this study
[6] = Radioactive metabolites in plasma and brain by radio-TLC; assay type: in vivo; conditions: mice, 45 min p.i.
Experimental: as §8, with “A whole brain volume of interest (VOI) based on the MRI template was generated.” left out

T3 sequence (P08183 whole entry): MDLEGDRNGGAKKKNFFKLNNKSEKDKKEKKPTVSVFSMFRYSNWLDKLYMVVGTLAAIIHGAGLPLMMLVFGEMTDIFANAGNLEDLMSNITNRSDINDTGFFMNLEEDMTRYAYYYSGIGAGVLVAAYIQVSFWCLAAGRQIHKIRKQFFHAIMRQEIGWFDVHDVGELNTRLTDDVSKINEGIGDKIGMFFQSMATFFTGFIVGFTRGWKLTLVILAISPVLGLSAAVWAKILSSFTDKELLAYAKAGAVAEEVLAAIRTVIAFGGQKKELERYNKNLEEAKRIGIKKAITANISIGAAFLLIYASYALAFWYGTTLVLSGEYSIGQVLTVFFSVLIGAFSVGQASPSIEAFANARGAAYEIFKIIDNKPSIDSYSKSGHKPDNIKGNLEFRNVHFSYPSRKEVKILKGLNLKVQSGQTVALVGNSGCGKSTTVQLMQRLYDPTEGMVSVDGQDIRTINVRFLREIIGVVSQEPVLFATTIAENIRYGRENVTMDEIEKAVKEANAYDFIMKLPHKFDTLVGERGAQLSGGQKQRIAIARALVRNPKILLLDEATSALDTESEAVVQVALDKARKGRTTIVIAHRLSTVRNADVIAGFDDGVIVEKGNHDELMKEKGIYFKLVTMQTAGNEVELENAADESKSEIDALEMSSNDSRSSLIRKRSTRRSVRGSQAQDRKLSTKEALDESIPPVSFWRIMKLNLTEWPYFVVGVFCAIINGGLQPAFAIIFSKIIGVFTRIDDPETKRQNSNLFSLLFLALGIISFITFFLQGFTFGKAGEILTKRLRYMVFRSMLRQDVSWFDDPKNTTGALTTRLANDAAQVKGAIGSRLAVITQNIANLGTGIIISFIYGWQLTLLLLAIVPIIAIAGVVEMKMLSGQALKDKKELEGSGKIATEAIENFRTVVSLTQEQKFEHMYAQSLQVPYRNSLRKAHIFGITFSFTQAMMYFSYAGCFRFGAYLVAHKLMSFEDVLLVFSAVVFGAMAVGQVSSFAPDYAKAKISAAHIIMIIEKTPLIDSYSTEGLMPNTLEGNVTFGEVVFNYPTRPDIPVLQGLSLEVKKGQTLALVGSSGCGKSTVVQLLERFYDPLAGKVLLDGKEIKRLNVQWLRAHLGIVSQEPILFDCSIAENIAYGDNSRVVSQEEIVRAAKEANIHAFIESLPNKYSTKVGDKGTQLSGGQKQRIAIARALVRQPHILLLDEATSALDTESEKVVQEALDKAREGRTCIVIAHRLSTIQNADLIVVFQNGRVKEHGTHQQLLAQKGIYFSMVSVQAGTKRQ
T2 sequence (P08183 whole entry): as above

C[C@H]1O[C@@H](O[C@H]2[C@@H](O)C[C@H](O[C@H]3[C@@H](O)C[C@H](O[C@H]4CC[C@@]5(C)[C@H](CC[C@@H]6[C@@H]5C[C@@H](O)[C@]5(C)[C@@H](C7=CC(=O)OC7)CC[C@]65O)C4)O[C@@H]3C)O[C@@H]2C)C[C@H](O)[C@@H]1O [[^3H]Digoxin, digoxin]
Papp A→B at 2 h, 0.05 µM (P-gp (human MDR1)): < 1 ×10⁻⁶ cm/s
Papp B→A at 2 h, 0.05 µM (P-gp (human MDR1)): > 15 ×10⁻⁶ cm/s

COc1ccc([C@@](C#N)(CCCNCCc2ccc(OCCF)c(OC)c2)C(C)C)cc1OC [O-FeVer, (R)-O-[^18F]fluoroethylnorverapamil]
ER after inhibition with ketoconazole (P-gp [1]; MDCKII-MDR1 cells, 0.01 µM + ketoconazole 25 µM): higher than 2
Substrate In Vitro (P-gp [1]; MDCKII-MDR1 cells): + (Definition as substrate (+) in vitro was ER > 2)
P-gp substrate behaviour in vitro (P-gp [1]; MDCKII-MDR1 cells): behaved like a P-gp substrate
ER 0.01 µM (P-gp [1]; MDCKII-MDR1 cells): > 30
Recovery of radioactivity (P-gp [1]): ≥ 76%
Papp A→B at 2 h, 0.01 µM (P-gp (MDR1); dog, MDCKII-MDR1 cells, 0.01 µM): < 2 ×10⁻⁶ cm/s
Papp A→B at 2 h, 1 µM (P-gp (MDR1); dog, MDCKII-MDR1 cells, 1 µM): < 2 ×10⁻⁶ cm/s
efflux ratio at 2 h, 1 µM (P-gp (MDR1); dog, MDCKII-MDR1 cells, 1 µM): > 30
efflux ratio at 2 h, 50 µM (P-gp (MDR1); dog, MDCKII-MDR1 cells): > 2
efflux ratio at 2 h, 0.01 µM (P-gp (MDR1)): 37
Parent compound, of total activity in plasma [2]: 20%
Substrate In Vivo (P-gp [3]): + (in vivo brain-to-plasma or AUC ratio > 2 in at least one strain)
EC50 (P-gp [4]): 2400 nM
Log D7.4 [5]: 1.6

COc1ccc(CCN(CCF)CCC[C@](C#N)(c2ccc(OC)c(OC)c2)C(C)C)cc1OC [N-FeVer, (R)-N-[^18F]fluoroethylverapamil]
Substrate In Vitro (P-gp [1]; MDCKII-MDR1 cells): + (Definition as substrate (+) in vitro was ER > 2)
Recovery of radioactivity (P-gp [1]): ≥ 76%
efflux ratio at 2 h, 0.01 µM (P-gp (MDR1)): 2.8
Parent compound, of total activity in plasma [2]: 46%
Substrate In Vivo (P-gp [3]): + (in vivo brain-to-plasma or AUC ratio > 2 in at least one strain)
EC50 (P-gp [4]): 1100 nM
Log D7.4 [5]: 2.0

COc1cc2c(cc1OC)CN(CC/C=C1\CCCc3c(OCCF)cccc31)CC2 [MC198, (E)-2-(3-(5-(2-Fluoroethoxy)-3,4-dihydronaphthalen-1(2H)-ylidene)propyl)-6,7-dimethoxy-1,2,3,4-tetra-hydroisoquinoline]
Substrate In Vitro (P-gp [1]; MDCKII-MDR1 cells): + (Definition as substrate (+) in vitro was ER > 2)
P-gp substrate behaviour in vitro (P-gp [1]; MDCKII-MDR1 cells): some affinity but very low capacity for P-gp mediated transport
ER 0.01 µM (P-gp [1]; MDCKII-MDR1 cells): above 2
efflux ratio at 2 h, 1 µM (P-gp (MDR1); dog, MDCKII-MDR1 cells, 1 µM): < 2
efflux ratio at 2 h, 50 µM (P-gp (MDR1); dog, MDCKII-MDR1 cells): < 2
efflux ratio at 2 h, 0.01 µM (P-gp (MDR1)): 2.1
Difference in whole brain time-activity curves (SUV) between knockout and wild-type (P-gp and/or Bcrp): 1.7 fold
P-gp substrate behaviour in vivo (P-gp and/or Bcrp): substrates for P-gp and/or Bcrp in vivo
Substrate In Vivo (P-gp [3]): + (in vivo brain-to-plasma or AUC ratio > 2 in at least one strain)
P-gp substrate classification in vivo (P-gp [3]): weak substrates
logD (Log D7.4): 2.3
EC50 (P-gp [4]): 270 nM
Fraction of intact parent compound in plasma [6]: 34%

COc1cc2c(cc1OC)CN(Cc1ccc(-c3ccc(OCCF)cc3)cc1)CC2 [MC224]
Log D7.4 [5]: 2.9

COc1cc2c(cc1OC)CN(CCCC1CCCc3c(OCCF)cccc31)CC2 (stereo not shown) [MC225]
Substrate In Vivo (P-gp [3]): + (in vivo brain-to-plasma or AUC ratio > 2 in at least one strain)
Log D7.4 [5]: 3.0

COc1cc2c(cc1OC)CN(CCCCOc1ccc(-c3ccc(OCCF)cc3)cc1)CC2 [KE64, 2-(4-(4′-(2-Fluoroethoxy)biphenyl-4-yloxy)butyl)-6,7-dimethoxy-1,2,3,4-tetrahydroisoquinoline]
Papp values in both directions (A → B and B → A) (P-gp [1]; MDCKII-MDR1 cells, all Papp values): < 3 ×10⁻⁶ cm/s
efflux ratio at 2 h, 0.01 µM (P-gp (MDR1)): 1.9
Difference in whole brain time-activity curves (SUV) between knockout and wild-type (P-gp and/or Bcrp): 1.6 fold
P-gp substrate behaviour in vivo (P-gp and/or Bcrp): moderate P-gp substrate in vivo
P-gp substrate behaviour in vivo (P-gp and/or Bcrp; listed as [^18F]KE64): substrates for P-gp and/or Bcrp in vivo
Substrate In Vivo (P-gp [3]): + (in vivo brain-to-plasma or AUC ratio > 2 in at least one strain)
P-gp substrate classification in vivo (P-gp [3]): weak substrates
logD (Log D7.4): 3.2
EC50 (P-gp [4]): 14 nM
Fraction of intact parent compound in plasma [6]: 26%
